# Key:
# IL-12 [1] = assay: IL-12 production by THP-1 cells stimulated with IFNγ and SAC; format: cell-based, human; conditions: retinoid antagonist (1 µg) added at time 0 together with IFNγ, IFNγ+SAC alone 275
# Procedure: THP-1 cells were obtained from American Tissue Culture Collection and cultured in complete medium. To assay for IL-12 production, THP-1 cells, 1.25 x 10^6 cells/ml, were stimulated with S. aureus Cowan strain (SAC) (1/1000) and human recombinant interferon-γ (huIFN-γ (1000 U/ml) [Ma et al., J. Exp. Med. 183, 147-157 (1996)]. Alternatively, 0.5 x 10^6 human peripheral blood mononuclear cells (PBMC) (1 ml culture in 48 well plates) were primed with huIFN-γ (1000 U/ml) for 16 hours at 37°C, and then stimulated with SAC (1/1000). Supernatants were collected after 48 hours and freezed at -20 °C until assayed [Panina-Bordignon et al., J. Clin. Invest. 100, 1513-1519 (1997)].
# IL-12 production was measured by specific enzyme linked immuno sorbant assay (ELISA), using 20C2 antibody (rat anti human IL-12 heterodimer p40-p35), at 2.5 µg/ml in coating buffer, and peroxidase-conjugated 4D6 antibody (rat anti human IL-12) at 250 ng/ml in assay buffer as described [Zhang et al., J. Clin. Invest. 93, 1733-1739 (1994)]. Standard (recombinant human IL-12, 800 pg/ml to 6 pg/ml) and samples (100 µl) diluted in assay buffer were added to duplicate wells. Absorbance was read at 450-650 nm. The unknown IL-12 concentrations of the samples were read from the corresponding standard curve and multiplied by the corresponding dilution factor. Maximal IL-12 production varied between 200 and 400 pg/ml.
# Lyophilized retinoid antagonists were diluted in DMSO under yellow light, on ice at a concentration of 2 mM. Serial dilutions (1 µM-1 pM) were prepared in complete RPMI medium. 10 µl of each dilution was added to 1 ml culture.
# IL-10 = IL-10 production by activated monocytes (SAC + IFN-γ); format: cell-based, human; conditions: SAC+IFN-γ alone 1040 pg/ml
# TNF-α = TNF-α production by activated monocytes (SAC + IFN-γ); format: cell-based, human; conditions: SAC+IFN-γ alone 1840-2000 pg/ml
# neonatal mouse calvaria = assay: Bone resorption assay, calcium release from neonatal mouse calvaria in tissue culture; format: cell-based, Swiss albino mice; conditions: for bone resorption induced by six different agents: inducers: calcitriol, all-trans RA, 9-cis RA, PGE2, TNFα, IL-1α (tables 6 to 11)
# Procedure: A series of agents are known to induce or stimulate bone resorption. In this assay retinoid antagonists were tested for their capacity to inhibit or counteract the bone resorptive activity of bone resorption inducers.
# Bone resorption was determined by quantification of calcium release from neonatal mouse calvaria (skull bones) in a tissue culture system, into supernatant medium. Calvaria were prepared from 4 days old mice (body weight 4-4.5 g) of time controlled mated Swiss albino mice. Frontal and parietal calvarial parts were dissected under a stereo-microscope and halved along the median suture. Half calvaria from all animals were randomly distributed to 6-well culture dishes (NUNC), containing stainless steel grids to support the bones at the interface of gas and medium. The tissue is incubated in BGJ medium (Bioconcept, Switzerland) according to a specified formulation supplemented with 1 mg/ml BSA (bovine serum albumin, SIGMA). Calvaria were cultured at 37°C in humidified atmosphere of 5% CO2 and 95% air. After 24 hours of preincubation, they were transferred to new dishes containing 1.7 ml fresh medium and test substances. Bone resorption inducers and retinoid antagonists were tested either as single agents or in combination. The cultures were then run for 72 hours. Calcium concentrations in culture supernatants were measured immediately after each incubation period. Stable, free calcium was determined in 25 µl samples with a spectrophotometric method using a methylthymol blue containing kit (Biomérieux), (E.M. Gindler and J.D. King, Am. J. Clin. Pathol. 1972, 58, 376-382). The resorptive response was expressed as µg calcium released per half calvarium during 3 days treatment.
# Additional tests were done to examine calcium remaining in the calvaria. Calcium was extracted with 5% trichloroacetic acid (TCA) and determined in 50 µl samples after neutralization with NaOH. Furthermore, bone tissue viability was determined to exclude cytotoxicity. This was quantified by the colorimetric MTT tetrazolium test (T. Mosmann, J. Immunol. Methods 1983, 65, 55-63).
# Bone resorption induced by the various agents was determined by measuring the amount of calcium released from half calvaria into the supernatant medium. Calcium release is indicated in µg per half calvarium in 1.7 ml medium. Calcium release from calvaria into medium as well as uptake of calcium from medium into calvaria can be measured. Efficacy of retinoid antagonists to inhibit the activity of bone resorption inducers is expressed as % inhibition. It is calculated from the difference between the amount of released calcium by bone resorption inducers alone and the amount of released calcium by their combination with retinoid antagonists. Retinoid antagonists alone induce neither calcium release nor uptake. Basal resorption rate in vehicle controls was 5 or less than 5%.
# IL-12 [2] = assay: IL-12 production by activated monocytes (SAC + IFN-γ), ELISA; format: cell-based, human; conditions: SAC+IFN-γ alone 120-126 pg/ml
# Procedure: THP-1 cells were obtained from American Tissue Culture Collection and cultured in complete medium. […] Exp. Med. 183, 147-157 (1996)]. […] Supernatants were collected after 48 hours and freezed at -20 °C until assayed [[…]-Bordignon et al., J. Clin. Invest. 100, 1513-1519 (1997)]. […] Clin. Invest. 93, 1733-1739 (1994)]. […] Absorbance was read at 450-650 nm. The unknown IL-12 concentrations of the samples were read from the corresponding standard curve and multiplied by the corresponding dilution factor. […] Serial dilutions (1 μM-1 pM) were prepared in complete RPMI medium. 10 μl of each dilution was added to 1 ml culture.
# [3] = 9-cis RA 0.1 μM + retinoid antagonist 1 μM
# [4] = 9-cis RA 0.1 μM + retinoid antagonist 10 μM
# [5] = 9-cis RA 1 μM + retinoid antagonist 10 μM
# [6] = Calcitriol 0.3 nM + retinoid antagonist 1 µM
# [7] = Calcitriol 1 nM + retinoid antagonist 1 µM
# [8] = Calcitriol 3 nM + retinoid antagonist 1 µM
# [9] = all-trans RA 0.1 μM + retinoid antagonist 1 μM
# [10] = all-trans RA 0.1 μM + retinoid antagonist 10 μM
# [11] = all-trans RA 1 μM + retinoid antagonist 10 μM
Structure (SMILES),THP-1 IL-12 (IL-12 [1]) [pg/mL],IL-10 (IL-10; antagonist 10 nM) [pg/mL],IL-10 (IL-10; antagonist 100 nM) [pg/mL],IL-10 (IL-10; antagonist 1000 nM) [pg/mL],TNF-α (TNF-α; antagonist 10 nM) [pg/mL],TNF-α (TNF-α; antagonist 100 nM) [pg/mL],TNF-α (TNF-α; antagonist 1000 nM) [pg/mL],Calcium release per half calvarium (neonatal mouse calvaria; [3]) [µg],Inhibition of bone resorption by retinoid antagonists (neonatal mouse calvaria; [3]) [%],Calcium release per half calvarium (neonatal mouse calvaria; [4]) [µg],Inhibition of bone resorption by retinoid antagonists (neonatal mouse calvaria; [4]) [%],Calcium release per half calvarium (neonatal mouse calvaria; [5]) [µg],Inhibition of bone resorption by retinoid antagonists (neonatal mouse calvaria; [5]) [%],Calcium release per half calvarium (neonatal mouse calvaria; [6]) [µg],Inhibition of bone resorption by retinoid antagonists (neonatal mouse calvaria; [6]) [%],Calcium release per half calvarium (neonatal mouse calvaria; [7]) [µg],Inhibition of bone resorption by retinoid antagonists (neonatal mouse calvaria; [7]) [%],Calcium release per half calvarium (neonatal mouse calvaria; [8]) [µg],Inhibition of bone resorption by retinoid antagonists (neonatal mouse calvaria; [8]) [%],Calcium release per half calvarium (neonatal mouse calvaria; [9]) [µg],also measured
"CCCCCCCOc1cc2c(cc1/C(C)=C/c1ccc(C(=O)O)cc1)C(C)(C)CCS2(=O)=O [Compound H, p-[(E)-2-[3',4'-Dihydro-4',4'-dimethyl-7'-(beptyloxy)-2'H-1-benzothiopyran-6'-yl]propenyl]benzoic acid 1',1'-dioxide]",306,1060,1050,1343,1392,1600,1912,4 ± 5,82,-5 ± 3,123,28 ± 7,30,0 ± 3,100,4 ± 3,55.6,11 ± 6,15.4,2 ± 11,Inhibition of bone resorption by retinoid antagonist (neonatal mouse calvaria; [9]): 89.5%; Calcium release per half calvarium (neonatal mouse calvaria; [10]): -5 ± 4 µg; Inhibition of bone resorption by retinoid antagonist (neonatal mouse calvaria; [10]): 126.3%; Calcium release per half calvarium (neonatal mouse calvaria; [11]): -2 ± 3 µg; Inhibition of bone resorption by retinoid antagonist (neonatal mouse calvaria; [11]): 108.7%; bone resorption induced by six different agents (neonatal mouse calvaria): counteract bone resorption; IL-12 (IL-12 [2]; antagonist 100 nM): 102 pg/mL; IL-12 (IL-12 [2]; antagonist 1000 nM): 251 pg/mL
"CCCCOc1c(\C(C)=C/C=C/C(C)=C/C(=O)O)cc(C(C)(C)C)cc1C(C)(C)C [Compound B, (2E,4E,6Z)-7-(3,5-di-tert.butyl-2-butyloxyphenyl]-3-methyl-2,4,6-octatrienoic acid]",577,1020,1521,1700,1484,1812,1560,2 ± 5,33.3,-4 ± 3,123.5,-6 ± 2,133.3,-1 ± 2,125,5 ± 3,44.4,4 ± 4,69.2,5 ± 4,Inhibition of bone resorption by retinoid antagonist (neonatal mouse calvaria; [9]): 61.5%; Calcium release per half calvarium (neonatal mouse calvaria; [10]): -3 ± 4 µg; Inhibition of bone resorption by retinoid antagonist (neonatal mouse calvaria; [10]): 123.1%; Calcium release per half calvarium (neonatal mouse calvaria; [11]): 10 ± 7 µg; Inhibition of bone resorption by retinoid antagonist (neonatal mouse calvaria; [11]): 41.2%; bone resorption induced by six different agents (neonatal mouse calvaria): counteract bone resorption; IL-12 (IL-12 [2]; antagonist 10 nM): 106 pg/mL; IL-12 (IL-12 [2]; antagonist 100 nM): 161 pg/mL; IL-12 (IL-12 [2]; antagonist 1000 nM): 298 pg/mL
